Data on five compounds can be found in patent US10093706B2, “Dominant positive hnRNP-E1 polypeptide compositions and methods” (Indiana University Research and Technology Corporation, priority 2017, dated 2018).

Several values for one entry are separate records, joined by “and”; a condition that tells them apart may be missing. Equal entries are not always repeated. Where two headings read alike, the source gives them in different places. Where only a bound is given, the exact number is not on record here.

The test system of test [1] is 25-nt hnRNP-E1 cis-element-driven CAT reporter. Nature of the test: 25-nt hnRNP-E1 cis-element-driven CAT reporter in placental 1584-HF cells. Particulars: 50-μM L-homocysteine for 3-h at 37° C. It counts as cell-based, human. An excerpt:
To prepare pCAT-25 or pCAT-25-Mutant two pairs of oligonucleotides, one for pCAT-25, (5′-tagcaggtac AAGCTTCTCCCGCCCGCTCCCGCTCGCTCCCCATGG tgtaactagct-3′SEQ ID NO:22; 5′-agctagttaca CCATGGGGAGCGAGCGGGAGCGGGCGGGAGAAGCTT gtacctgcta-3′ SEQ ID NO:23), and one for pCAT-25-Mutant#6, (5′-tagcaggtac AAGCTTCTTCCGCCCGCTCCCGCTCGCTTCCCATGG tgtaactagct-3′ SEQ ID NO:24; 5′-agctagttaca CCATGGGGAGCGAGCGGGAGCGGGCGGGAGAAGCTT gtacctgcta-3′SEQ ID NO:25) were first linearized with HindIII and NcoI and subcloned into pCAT3 Control DNA digested with HindIII and NcoI.

Test [2] relates to hnRNP-E1 mRNA. Nature of the test: In vitro translation of hnRNP-E1. It counts as biochemical, human. The method, then:
(§1) In vitro transcription-translation was carried out using the Linked SP6/T7 In Vitro Transcription/Translation Kit (Roche Applied Science) after addition of one of various targeted DNAs—pSPT18-25-hnRNP-E1 DNA, or Pst1-linearized plasmid pSPT18-folate receptor-α, or HPV16 L2 DNA, (0.5 μg/reaction)—to the transcription mix as described. In other experiments, the capacity for perturbing the interaction of hnRNP-E1 with the 25-nt hnRNP-E1 cis-element during in vitro translation was assessed in the presence of either scrambled oligonucleotides (5′-[…]-3′ SEQ ID NO:20) or specific antisense oligonucleotides (5′-[…]-3′ SEQ ID NO:21) generated against the 25-nt hnRNP-E1 mRNA cis-element (GenScript USA, Piscataway, N.J.).

Test [3] addresses T1, 25-nt hnRNP-E1 mRNA cis-element-bound hnRNP-E1 protein complexes (Homo sapiens, UniProt Q15365).
T1 construct: endogenous in cells; host or cells: human placental 1584-HF / 1584-LF cells
Nature of the test: Slot-blot capture of intracellular RNA-protein complexes in placental 1584-HF cells. It counts as cell-based. Particulars: increasing concentrations, 2-hour exposure. The protocol: Slot-blot hybridization was carried out under high stringency conditions to detect intracellular RNA-protein complexes (composed of endogenous hnRNP-E1 RNA cis-element-bound to cellular hnRNP-E1 proteins) in placental 1584 cells under experimental conditions that modulated the intracellular concentration of homocysteine. We employed similar principles used to capture folate receptor-α mRNA cis-element-bound hnRNP-E1 complexes in HeLa-IU1 cells. […] Following RNase treatment and proteolysis, equal aliquots of the released small mRNA cis-element fragments were probed for evidence of enrichment of hnRNP-E1 mRNA cis-element in experimental cells using a specific [^35S]labeled antisense hnRNP-E1 mRNA cis-element probe.

In test [4] the target is hnRNP-E1 binding to folate receptor mRNA and hnRNP-E1 mRNA cis-element (Homo sapiens, UniProt Q15365). Particulars: physiologically relevant thiols; cited from earlier work.
Test [5] deals with T2, RNA-protein complexes of GST-hnRNP-E1 and 25-nt hnRNP-E1 mRNA cis-element (Homo sapiens, UniProt Q15365, A205V).
T2 construct: made in house; host or cells: Escherichia coli BL21
The test is described as follows: Gel-shift assay: effect of thiols, iron and deferoxamine on RNA-protein complex formation. It counts as binding.

Test [6] has as its system folate receptor-α mRNA. Nature of the test: In vitro translation of folate receptor-α. It counts as biochemical, human. The method, then:
In vitro transcription-translation was carried out using the Linked SP6/T7 In Vitro Transcription/Translation Kit (Roche Applied Science) after addition of one of various targeted DNAs—pSPT18-25-hnRNP-E1 DNA, or Pst1-linearized plasmid pSPT18-folate receptor-α, or HPV16 L2 DNA, (0.5 μg/reaction)—to the transcription mix as described. In other experiments, the capacity for perturbing the interaction of hnRNP-E1 with the 25-nt hnRNP-E1 cis-element during in vitro translation was assessed in the presence of either scrambled oligonucleotides (5′-GCGTCGCTCGCTTCGCACGTGCGCC-3′ SEQ ID NO:20) or specific antisense oligonucleotides (5′-GGG AGC GAG CGG GCG GGA G-3′ SEQ ID NO:21) generated against the 25-nt hnRNP-E1 mRNA cis-element (GenScript USA, Piscataway, N.J.).

The target of test [7] is [^35S]25-nt hnRNP-E1 mRNA cis-element. The test is described as follows: Dissociation constant (KD) of GST-hnRNP-E1 or its mutant proteins for the 25-nt hnRNP-E1 mRNA cis-element. It counts as binding, human. The protocol:
(§2) Methods for testing the ability of an engineered hnRNP-E1 variant polypeptide to bind to an RNA comprising the sequence of SEQ ID NO:6 are known in the art. Such methods include, but are not limited to, RNA electrophoretic mobility shift assays, as exemplified herein, RNA pull-down assays, and oligonucleotide-targeted RNase H protection assays. Such assays are conducted in the presence or absence of homocysteine to determine the RNA-binding dependence of any particular hnRNP-E1 polypeptide tested on the presence of homocysteine. […] Additional methods are outline in Tang et al. (“Incrimination of heterogeneous nuclear ribonucleoprotein E1 (hnRNP-E1) as a candidate sensor of physiological folate deficiency.” J Biol Chem. 2011; 286(45):39100-39115), which is incorporated herein in its entirety.
(§3) Specific binding was determined by subtracting values of non-specific binding with GST from those of total binding with GST-hnRNP-E1; (however, in Table 1 and FIG. 6G, non-specific binding using bovine serum albumin (BSA) was subtracted from total binding to GST-hnRNP-E1 to determine specific binding). The KD was calculated from a Scatchard plot using GraphPad Prism 6 from GraphPad Software (San Diego, Calif.), as previously described in the art.

Test [8] addresses [^35S]18-nt folate receptor-α mRNA cis-element. Nature of the test: Dissociation constant (KD) of GST-hnRNP-E1 or its mutant proteins for the 18-nt folate receptor-α mRNA cis-element. It counts as binding, human. The protocol:
as §2, §3

Test [9] deals with newly synthesized [^35S]folate receptors in placental 1584-HF cells. Nature of the test: Biosynthetic rate of folate receptors after protein transfection into placental 1584-HF cells. It counts as cell-based, human. Particulars: protein transfected in placental 1584-HF cells. The text has this:
(§4) Transfection of purified recombinant wild-type or various mutant hnRNP-E1 proteins into cells was achieved using the Xfect™ Protein Transfection Kit (Clontech, Mountain View, Calif.). Briefly, placental 1584-HF cells in 10-cm dishes at 70-80% confluence were transfected with 2.4-mL serum-free medium and Xfect Protein Transfection Reagent (1.2-mL) containing 20-μg of either wild-type hnRNP-E1-, or highest-affinity (HA)-hnRNP-E1(C293S)-mutant, or wild-type-like hnRNP-E1 (G292A)-mutant proteins and 2-μg of ß-galactosidase at 37° C. for 60-min. After cysteine-starvation for 4-h, an aliquot of cells were assessed for ß-galactosidase activity (to measure the efficiency of co-transfection of ß-galactosidase) and the remaining cells were pulsed with L-[^35S]cysteine (250-μCi) and assessed for specific [^35S]cysteine incorporated into folate receptor to determine the biosynthetic rate of this protein. A similar protocol was employed for analysis of newly synthesized [^35S]hnRNP-E1 using anti-hnRNP-E1 antiserum-coupled agarose and control agarose in order to derive values for specific [^35S]cysteine incorporated into hnRNP-E1 and thereby determine the biosynthetic rate of this protein.

Test [10] concerns HPV16 L2 RNA. Nature of the test: In vitro translation of HPV16 L2 protein. It counts as biochemical, Human Papillomavirus type 16. Particulars: for HPV16 L2 protein signal: after quenching excess ß-ME by NEM (2 mM). The protocol:
as §1
(§5) Construction of plasmids for generation of HPV16 L2 RNA, gel-shift and in vitro translation studies were carried as described with additional treatments shown in FIGS. 10A-10D

Test [11] has as its system newly synthesized [^35S]hnRNP-E1 in placental 1584-HF cells. The test is described as follows: Biosynthetic rate of hnRNP-E1 after protein transfection into placental 1584-HF cells. It counts as cell-based, human. Particulars: protein transfected in placental 1584-HF cells.
Description: as §4

Test [12] concerns 25-nt hnRNP-E1 mRNA cis-element. Nature of the test: Gel-shift assay of hnRNP-E1 proteins with 25-nt hnRNP-E1 mRNA cis-element. Particulars: absence of L-homocysteine. It counts as binding, human. The method, then:
(§6) Parenthetically, there was no significant difference in RNA binding to GST-hnRNP-E1 by use of either 32P-RNA probes or 35S-labeled RNA probes used. Other studies assessed the effect of iron(II) or iron(III) on homocysteine-induced RNA-protein interactions.
Recombinant GST-plasmid DNA, pGST-hnRNP-E1, pGST-hnRNP-E2, and related engineered variant plasmids were transformed into BL21 Escherichia coli from Novagen (Madison, Wis.). After induction by 1 mM isopropyl-1-thio-ß-D-galactopyranoside, the GST-hnRNP-E1 and engineered variant fusion proteins were individually purified using the B-PER GST Fusion Protein Purification Kit (Pierce, Rockford, Ill.). The eluted GST fusion proteins were dialyzed against 500 volumes of buffer to remove excess reducing reagents (such as dithiothreitol (DTT)) and assayed by SDS-PAGE and Western blots using anti-peptide hnRNP-E1 antiserum. Gel shift assays with target RNA were carried out as described.

For test [13], the target named is [^35S]18-nt folate receptor-α mRNA cis-element. Particulars: earlier studies, cited from earlier work.
Test [14] concerns HPV16 L2 mRNA cis-element. Nature of the test: Gel-shift assay of hnRNP-E1 proteins with HPV16 L2 mRNA. It counts as binding, Human Papillomavirus type 16. Particulars: absence of reducing agents; versus wild-type and G292A. The method, then: as §6, §5
[15] abbreviates: listed as wild-type-like hnRNP-E1(G292A)-mutant.

T2 sequence (Q15365 whole entry A205V, one chain of several): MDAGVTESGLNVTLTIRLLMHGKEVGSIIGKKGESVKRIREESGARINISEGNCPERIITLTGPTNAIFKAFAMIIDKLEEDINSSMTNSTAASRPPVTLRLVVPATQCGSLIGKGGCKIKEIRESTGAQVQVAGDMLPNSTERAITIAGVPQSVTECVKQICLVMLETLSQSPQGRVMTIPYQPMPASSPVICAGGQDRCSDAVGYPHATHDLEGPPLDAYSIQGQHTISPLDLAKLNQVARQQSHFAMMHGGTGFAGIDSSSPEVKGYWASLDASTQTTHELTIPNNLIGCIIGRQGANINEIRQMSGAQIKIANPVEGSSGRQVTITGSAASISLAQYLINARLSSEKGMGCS
T1 sequence (Q15365 whole entry, one chain of several): as the sequence (Q15365 whole entry A205V, one chain of several) above, with V205A counted along it
Chain of hnRNP-E1 binding to folate receptor mRNA and hnRNP-E1 mRNA cis-element (Q15365 whole entry): as the sequence (Q15365 whole entry A205V, one chain of several) above, with V205A counted along it

As for `N[C@@H](CCS)C(=O)O` [L-Homocysteine, L-homocysteine], in test [1], the CAT activity result is recorded as “further significant increase in CAT activity over baseline”. Besides, the “translation of hnRNP-E1” value in test [2] (N-ethylmaleimide maintained in the reaction mixture, physiological concentrations) is given as “progressively increased translation of hnRNP-E1”. Moreover, the “slot-blot hybridization signal of captured RNA-protein complexes” value in test [3] is recorded as “progressive dose-dependent increase in signal”. Moreover, the “hnRNP-E1 activation and mRNA-binding” value in test [4] is on record as “optimal”. The RNA-protein complex formation result in [5] (10-mM glutathione in reaction mixture, from 5-μM) is listed as “dose-dependent increase in RNA-protein complex formation”. The “concentration at which RNA-protein interaction can occur” value in test [5] (in vitro assays using purified components) is not below 2.5 µM. The RNA-protein signal entry in test [5] (increasing physiologically relevant concentrations) is “dose-dependent increase of RNA-protein signal”.
Consider `CCN1C(=O)C=CC1=O` [N-ethylmaleimide], for which the “effect on in vitro translation of hnRNP-E1” value in test [2] (agent added to translation mixture (4.1-mM ß-ME)) is listed as “progressive reduction in the amount of hnRNP-E1 translated”. Also, the “basal translation of folate receptor-α mRNA in vitro” value in [6] (increasing NEM) is listed as “diminished in a dose-dependent manner”.
As for “GST-hnRNP-E1(G292A): control mutant, glycine-292 mutated to alanine; behaved similar to wild-type hnRNP-E1”, the Kd (commonly the constant that tells how readily two partners part at equilibrium) is 2.02 nM in test [7] (L-Homocysteine 0 μM); 1.57 nM and 1.5 nM in test [8] (L-Homocysteine 0 μM, listed as wild-type-like hnRNP-E1(G292A)-mutant). In addition, the “[^35S]cysteine-folate receptor” value is reported as 1.79 ± 0.13 b fmol/mg protein/h in [9] and 1.79 fmol/mg protein/h in [9] (setting [15]). Further, the “HPV16 L2 protein signal” value in test [10] is “insignificant reduction of HPV16 L2 protein signal”. The “[^35S]cysteine-hnRNP-E1” value turned out to be 1.03 ± 0.21 b fmol/mg protein/h in test [11] and 1.03 fmol/mg protein/h in test [11] (setting [15]). Also, the RNA-protein gel-shift signal entry in test [12] is reported as “no RNA-protein gel-shift signals”.
Consider “GST-hnRNP-E1: purified recombinant glutathione S-transferase fusion of wild-type human hnRNP-E1 (SEQ ID NO:1)”, for which the Kd amounted to 2.74 ± 0.52 nM in test [7] (Iron(II) 0 μM, L-Homocysteine 25 μM); 3.72 ± 0.34 nM in [7] (Iron(II) 5 μM, L-Homocysteine 25 μM); 6.5 ± 0.83 nM in test [7] (Iron(II) 25 μM, L-Homocysteine 25 μM); 1.93 nM in test [7] (L-Homocysteine 0 μM); 1.14 nM in test [7] (L-Homocysteine 10 μM); 0.62 nM in test [7] (L-Homocysteine 50 μM). Also, the Kd in [8] (L-Homocysteine 0 μM) was 1.47 nM; in test [8] (L-Homocysteine 10 μM) it was 0.89 ± 0.16 nM; in test [8] (L-Homocysteine 50 μM), 0.47 nM; in test [13] (L-homocysteine raised to levels of mild-to-moderate folate deficiency), 0.5 nM; in test [13] (baseline) it was 1.5 nM. Also, the “[^35S]cysteine-folate receptor” value in test [9] was 1.62 ± 0.11 b fmol/mg protein/h; in test [9] (listed as wild-type hnRNP-E1), 1.62 fmol/mg protein/h. Besides, the “HPV16 L2 protein signal” value in test [10] is given as “insignificant reduction of HPV16 L2 protein signal”. Moreover, the “in vitro translation of HPV16 L2 protein” value in test [10] (basal conditions, excess ß-ME not counteracted by NEM, dose-dependent addition) was “progressive reduction in the in vitro translation of HPV16 L2 protein”. Also, the results for the “[^35S]cysteine-hnRNP-E1” value in test [11] and in test [11] (listed as wild-type hnRNP-E1) were 1.12 ± 0.23 b fmol/mg protein/h and 1.12 fmol/mg protein/h, respectively. In addition, the RNA-protein gel-shift signal entry in test [12] is given as “no RNA-protein gel-shift signals”.
As for “hnRNP-E1(C54S)-mutant: hnRNP-E1 with cysteine-54 replaced by serine (SEQ ID NO:3)”, the “interaction with HPV16 L2 mRNA on gel-shift assays” value in [14] is given as “greater interaction”. For the same compound, the “translation of folate receptor-α” value in [6] (presence of 2-mM NEM) was “maximally increased”.
